Reference: patent US20060173015A1, “Cyclohexyldiamines as selective alpha 1a/1d adrenoreceptor antagonists for the treatment of benign prostatic hypertrophy and lower urinary tract symptoms” (priority 2004, published 2006)
Counter-ions that a name gives are not always drawn.

How the values were obtained:
[1] = target: T1, α1b-AR (Homo sapiens, UniProt P35368); test: α1-Adrenergic receptor radio-ligand (125I-HEAT) binding assay, α1b subtype; details: Receptor Binding, Ki α1b-AR, COS-7 cell membranes, 125I-HEAT
T1 sequence (P35368 1-520): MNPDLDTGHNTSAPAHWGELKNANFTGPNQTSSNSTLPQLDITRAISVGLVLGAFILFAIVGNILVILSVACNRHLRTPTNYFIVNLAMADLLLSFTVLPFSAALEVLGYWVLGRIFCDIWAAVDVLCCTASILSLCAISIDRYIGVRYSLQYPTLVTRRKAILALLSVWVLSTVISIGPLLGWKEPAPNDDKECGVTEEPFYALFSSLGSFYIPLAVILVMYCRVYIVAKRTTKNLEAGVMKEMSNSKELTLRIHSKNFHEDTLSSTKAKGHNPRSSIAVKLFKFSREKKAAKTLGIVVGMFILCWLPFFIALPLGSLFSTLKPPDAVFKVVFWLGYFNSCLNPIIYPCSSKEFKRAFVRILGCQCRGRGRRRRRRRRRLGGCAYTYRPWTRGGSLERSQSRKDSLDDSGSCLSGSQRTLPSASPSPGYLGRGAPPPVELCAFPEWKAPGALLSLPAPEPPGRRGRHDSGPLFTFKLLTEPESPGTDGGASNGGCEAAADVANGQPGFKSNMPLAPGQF

[2] = target: T2, α1a-AR (Homo sapiens, UniProt P35348); test: α1-Adrenergic receptor radio-ligand (125I-HEAT) binding assay, α1a subtype; details: COS-7 cell membranes, 125I-HEAT
T2 construct: expressed in transfected cells; host or cells: COS-7
T2 sequence (P35348 1-466): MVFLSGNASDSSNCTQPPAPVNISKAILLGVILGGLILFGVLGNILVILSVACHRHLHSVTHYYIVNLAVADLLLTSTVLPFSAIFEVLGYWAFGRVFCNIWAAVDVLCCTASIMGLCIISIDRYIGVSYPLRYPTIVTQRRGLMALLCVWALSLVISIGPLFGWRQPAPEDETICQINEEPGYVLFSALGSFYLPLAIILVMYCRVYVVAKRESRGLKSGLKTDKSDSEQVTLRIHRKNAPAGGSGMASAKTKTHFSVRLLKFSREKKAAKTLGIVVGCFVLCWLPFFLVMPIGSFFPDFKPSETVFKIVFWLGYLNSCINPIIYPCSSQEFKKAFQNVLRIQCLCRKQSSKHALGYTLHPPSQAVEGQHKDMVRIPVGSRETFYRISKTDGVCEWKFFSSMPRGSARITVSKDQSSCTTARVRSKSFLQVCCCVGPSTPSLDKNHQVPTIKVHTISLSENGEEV
In short: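 Membranes from COS-7 cells transfected with the α1a-AR were incubated with 50 pM final ¹²⁵I-HEAT and test compound (1 pM–10 μM final, half-log steps) in Tris/EDTA/NaCl buffer pH 7.4 for 1 hr at rt. Bound radioactivity was counted after GF/C filtration, in triplicate.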

[3] = target: T3, α1d-AR (Homo sapiens, UniProt P25100); test: α1-Adrenergic receptor radio-ligand (125I-HEAT) binding assay, α1d subtype; details: COS-7 cell membranes, 125I-HEAT; read-out: Receptor Binding, Ki α1d-AR
T3 construct: expressed in transfected cells; host or cells: COS-7
T3 sequence (P25100 1-572): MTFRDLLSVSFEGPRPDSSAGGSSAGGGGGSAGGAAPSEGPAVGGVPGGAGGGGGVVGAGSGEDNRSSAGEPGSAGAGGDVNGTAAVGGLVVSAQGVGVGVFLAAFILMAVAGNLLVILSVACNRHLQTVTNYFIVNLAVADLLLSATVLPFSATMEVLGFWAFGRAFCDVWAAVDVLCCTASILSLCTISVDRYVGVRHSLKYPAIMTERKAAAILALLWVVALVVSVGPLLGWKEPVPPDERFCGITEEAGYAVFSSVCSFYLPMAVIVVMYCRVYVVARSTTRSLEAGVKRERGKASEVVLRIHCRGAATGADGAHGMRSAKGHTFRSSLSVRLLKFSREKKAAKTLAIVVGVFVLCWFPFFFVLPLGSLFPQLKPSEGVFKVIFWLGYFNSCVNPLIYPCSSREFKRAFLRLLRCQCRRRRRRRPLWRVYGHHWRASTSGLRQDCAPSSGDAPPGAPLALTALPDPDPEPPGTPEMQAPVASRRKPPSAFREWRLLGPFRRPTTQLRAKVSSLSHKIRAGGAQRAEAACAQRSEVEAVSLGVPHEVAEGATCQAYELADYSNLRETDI

[4] = system: BPH patients; details: large clinical trials of BPH patients; cited from earlier work
[5] = system: α1a and α1d subtypes over the α1b subtype; details: cited from earlier work
[6] = system: micturition pressure; details: intrathecal; normal rats and rats with bladder hypertrophy secondary to outlet obstruction; cited from earlier work

SMILES	Ki [1] [nM]	Ki [2] [nM]	Ki [3] [nM]	further results
CCN([C@H]1CC[C@@H](N2CCN(c3ccccc3OC(C)C)CC2)CC1)S(=O)(=O)c1ccc(OC)c(OC)c1 (as salt: fumarate) [Cpd 67, N-Ethyl-N-cis-{4-[4-(2-isopropoxy-phenyl)-piperazin-1-yl]-cyclohexyl}-3,4-dimethoxy-benzenesulfonamide]				melting point: 199 °C (dec.)
CCN([C@H]1CC[C@H](N2CCN(c3ccccc3OC(C)C)CC2)CC1)S(=O)(=O)c1ccc(OC)c(OC)c1 (as salt: fumarate) [Cpd 68, N-Ethyl-N-trans-{4-[4-(2-isopropoxy-phenyl)-piperazin-1-yl]-cyclohexyl}-3,4-dimethoxy-benzenesulfonamide]				melting point: 186 °C (dec.)
COc1ccc(S(=O)(=O)N[C@H]2CC[C@@H](N3CCN(c4cc(F)ccc4OCC(F)(F)F)CC3)CC2)cc1OC (as salt: fumarate) [Cpd 83, N-cis-(4-{4-[5-Fluoro-2-(2,2,2-trifluoro-ethoxy)-phenyl]-piperazin-1-yl}-cyclohexyl)-3,4-dimethoxy-benzenesulfonamide]				melting point: 232 °C
COc1ccc(S(=O)(=O)N[C@H]2CC[C@H](N3CCN(c4cc(F)ccc4OCC(F)(F)F)CC3)CC2)cc1OC (as salt: fumarate) [Cpd 84, N-trans-(4-{4-[5-Fluoro-2-(2,2,2-trifluoro-ethoxy)-phenyl]-piperazin-1-yl}-cyclohexyl)-3,4-dimethoxy-benzenesulfonamide]				melting point: 185 °C
COc1ccc(S(=O)(=O)N[C@H]2CC[C@@H](N3CCN(c4ccc(F)cc4OCC(F)(F)F)CC3)CC2)cc1OC [Cpd 75, N-cis-(4-{4-[4-Fluoro-2-(2,2,2-trifluoro-ethoxy)-phenyl]-piperazin-1-yl}-cyclohexyl)-3,4-dimethoxy-benzenesulfonamide]	176	13.9	5.2	
COc1ccc(Cl)cc1S(=O)(=O)N[C@H]1CC[C@@H](N2CCN(c3ccc(F)cc3OCC(F)(F)F)CC2)CC1 [Cpd 76, 5-Chloro-N-cis-(4-{4-[4-fluoro-2-(2,2,2-trifluoro-ethoxy)-phenyl]-piperazin-1-yl}-cyclohexyl)-2-methoxy-benzenesulfonamide]	196	17	8.5	
O=S(=O)(N[C@H]1CC[C@@H](N2CCN(c3ccc(F)cc3OCC(F)(F)F)CC2)CC1)c1cc(Cl)ccc1F [Cpd 77, 5-Chloro-2-fluoro-N-cis-(4-{4-[4-fluoro-2-(2,2,2-trifluoro-ethoxy)-phenyl]-piperazin-1-yl}-cyclohexyl)-benzenesulfonamide]	206	43	29	
COc1ccc(Cl)cc1S(=O)(=O)N[C@H]1CC[C@H](N2CCN(c3ccc(F)cc3OC(C)C)CC2)CC1 [Cpd 78, 5-Chloro-N-trans-{4-[4-(4-fluoro-2-isopropoxy-phenyl)-piperazin-1-yl]-cyclohexyl}-2-methoxy-benzenesulfonamide]	44	340	47	
CC(C)Oc1cc(F)ccc1N1CCN([C@H]2CC[C@H](NS(=O)(=O)c3cc(Cl)ccc3F)CC2)CC1 [Cpd 79, 5-Chloro-2-fluoro-N-trans-{4-[4-(4-fluoro-2-isopropoxy-phenyl)-piperazin-1-yl]-cyclohexyl}-benzenesulfonamide]	107	5.4	14	
COc1ccc(S(=O)(=O)N[C@H]2CC[C@H](N3CCN(c4ccc(F)cc4OCC(F)(F)F)CC3)CC2)cc1OC [Cpd 80, N-trans-(4-{4-[4-Fluoro-2-(2,2,2-trifluoro-ethoxy)-phenyl]-piperazin-1-yl}-cyclohexyl)-3,4-dimethoxy-benzenesulfonamide]	87	21	38	
COc1ccc(Cl)cc1S(=O)(=O)N[C@H]1CC[C@H](N2CCN(c3ccc(F)cc3OCC(F)(F)F)CC2)CC1 [Cpd 81, 5-Chloro-N-trans-(4-{4-[4-fluoro-2-(2,2,2-trifluoro-ethoxy)-phenyl]-piperazin-1-yl}-cyclohexyl)-2-methoxy-benzenesulfonamide]	90	34	51	
O=S(=O)(N[C@H]1CC[C@H](N2CCN(c3ccc(F)cc3OCC(F)(F)F)CC2)CC1)c1cc(Cl)ccc1F [Cpd 82, 5-Chloro-2-fluoro-N-trans-(4-{4-[4-fluoro-2-(2,2,2-trifluoro-ethoxy)-phenyl]-piperazin-1-yl}-cyclohexyl)-benzenesulfonamide]	442	52	240	
COc1ccc(S(=O)(=O)N[C@H]2CC[C@@H](N3CCN(c4cc(F)ccc4OCC(F)(F)F)CC3)CC2)cc1OC [Cpd 83, N-cis-(4-{4-[5-Fluoro-2-(2,2,2-trifluoro-ethoxy)-phenyl]-piperazin-1-yl}-cyclohexyl)-3,4-dimethoxy-benzenesulfonamide]	75	1.7	0.58	
COc1ccc(S(=O)(=O)N[C@H]2CC[C@H](N3CCN(c4cc(F)ccc4OCC(F)(F)F)CC3)CC2)cc1OC [Cpd 84, N-trans-(4-{4-[5-Fluoro-2-(2,2,2-trifluoro-ethoxy)-phenyl]-piperazin-1-yl}-cyclohexyl)-3,4-dimethoxy-benzenesulfonamide]	220	33	36.1	
CCOc1ccccc1OCCN[C@H](C)Cc1ccc(OC)c(S(N)(=O)=O)c1 [Tamsulosin]				effect on obstructive and irritative symptoms [4]: improvement in both obstructive and irritative symptoms; selectivity for the α1a and α1d subtypes over the α1b subtype [5]: about 15 fold
COc1cc2nc(N3CCN(C(=O)C4COc5ccccc5O4)CC3)nc(N)c2cc1OC (stereo not shown) [doxazosin]				effect on micturition pressure [6]: decrease in micturition pressure
